Structures can show the parent of a compound that is named as a salt.
Assays:
AChE = molecular target: T1, AChE (Homo sapiens, UniProt P22303); experiment: Enzymatic assay AChE; type: biochemical; details: inhibitor, read-out: IC50 (μM) Antag./Blocker/Inhibitor
T1 construct: purchased R&D Systems

COX1 = molecular target: T2, COX1 (Homo sapiens, UniProt P23219); experiment: Enzymatic assay COX1; type: biochemical; details: inhibitor, read-out: IC50 (μM) Antag./Blocker/Inhibitor
T2 construct: purchased BPS Bioscience

[1] = molecular target: T3, 5-Hydroxytryptamine (Serotonin) Receptor 1B (5-HT1B) (Homo sapiens, UniProt P28222); experiment: cAMP secondary messenger assay, antagonist format; type: cell-based; details: read-out: IC50 (μM) Antag./Blocker/Inhibitor
T3 construct: host or cells: cAMP Hunter cell line

[2] = molecular target: 5-Hydroxytryptamine (Serotonin) Receptor 2A (5-HT2A) (Homo sapiens, UniProt P28223); experiment: Calcium flux secondary messenger assay, antagonist format; type: cell-based; details: read-out: IC50 (μM) Antag./Blocker/Inhibitor
[3] = molecular target: 5-Hydroxytryptamine (Serotonin) Receptor 2B (5-HT2B) (Homo sapiens, UniProt P41595); experiment: Calcium flux secondary messenger assay, agonist format; type: cell-based; details: read-out: EC50 (μM) Agonist/Opener
[4] = molecular target: T4, 5-Hydroxytryptamine (Serotonin) Receptor 3A (5-HT3A) (Homo sapiens, UniProt P46098); experiment: Ion channel assay, opener format; type: cell-based; details: read-out: EC50 (μM) Agonist/Opener
T4 construct: expressed in transfected cells

[5] = molecular target: T5, 5-Hydroxytryptamine (Serotonin) Receptor 1A (5-HT1A) (Homo sapiens, UniProt P08908); experiment: cAMP secondary messenger assay, agonist format; type: cell-based; details: read-out: EC50 (μM) Agonist/Opener
T5 construct: host or cells: cAMP Hunter cell line

[6] = molecular target: Adrenergic Receptor α2A (ADRA2A) (Homo sapiens, UniProt P08913); experiment: cAMP secondary messenger assay, agonist format; type: cell-based; details: read-out: EC50 (μM) Agonist/Opener
[7] = molecular target: Histamine Receptor H1 (HRH1) (Homo sapiens, UniProt P35367); experiment: Calcium flux secondary messenger assay, agonist format; type: cell-based; details: read-out: EC50 (μM) Agonist/Opener
[8] = molecular target: Adenosine Receptor A2A (ADORA2A) (Homo sapiens, UniProt P29274); experiment: as above; type: cell-based; details: read-out: EC50 (μM) Agonist/Opener
[9] = molecular target: T6, Arginine Vasopressin Receptor 1A (AVPR1A) (Homo sapiens, UniProt P37288); experiment: as above; type: cell-based; details: read-out: EC50 (μM) Agonist/Opener
T6 sequence (P37288 whole entry): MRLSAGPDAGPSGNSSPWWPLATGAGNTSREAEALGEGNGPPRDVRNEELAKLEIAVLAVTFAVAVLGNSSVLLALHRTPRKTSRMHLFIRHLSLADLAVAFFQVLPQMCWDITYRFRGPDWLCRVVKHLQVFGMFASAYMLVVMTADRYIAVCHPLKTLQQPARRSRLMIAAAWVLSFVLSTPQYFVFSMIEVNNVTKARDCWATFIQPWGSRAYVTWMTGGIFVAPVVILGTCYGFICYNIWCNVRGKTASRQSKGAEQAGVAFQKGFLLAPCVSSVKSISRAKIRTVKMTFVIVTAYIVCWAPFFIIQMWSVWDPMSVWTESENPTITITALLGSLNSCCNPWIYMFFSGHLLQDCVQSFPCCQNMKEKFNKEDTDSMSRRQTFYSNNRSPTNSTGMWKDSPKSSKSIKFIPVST

[10] = molecular target: T6, Arginine Vasopressin Receptor 1A (AVPR1A); experiment: Calcium flux secondary messenger assay, antagonist format; type: cell-based; details: read-out: IC50 (μM) Antag./Blocker/Inhibitor
[11] = molecular target: T7, Cholecystokinin Receptor A (CCKAR) (Homo sapiens, UniProt P32238); experiment: Calcium flux secondary messenger assay, agonist format; type: cell-based; details: read-out: EC50 (μM) Agonist/Opener
T7 sequence (P32238 whole entry): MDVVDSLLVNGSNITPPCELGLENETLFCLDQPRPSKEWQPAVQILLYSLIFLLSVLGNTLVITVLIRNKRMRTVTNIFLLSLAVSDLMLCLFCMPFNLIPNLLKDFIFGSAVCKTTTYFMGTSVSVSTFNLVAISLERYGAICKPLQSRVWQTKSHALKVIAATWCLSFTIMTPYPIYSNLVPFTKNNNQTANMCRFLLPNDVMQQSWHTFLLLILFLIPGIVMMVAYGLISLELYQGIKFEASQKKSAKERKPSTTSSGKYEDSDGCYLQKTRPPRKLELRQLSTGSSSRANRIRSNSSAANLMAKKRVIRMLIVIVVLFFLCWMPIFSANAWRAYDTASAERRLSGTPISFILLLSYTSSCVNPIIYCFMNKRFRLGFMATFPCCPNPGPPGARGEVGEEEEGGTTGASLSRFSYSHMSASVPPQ

[12] = molecular target: T7, Cholecystokinin Receptor A (CCKAR); experiment: Calcium flux secondary messenger assay, antagonist format; type: cell-based; details: read-out: IC50 (μM) Antag./Blocker/Inhibitor
[13] = molecular target: Muscarinic acetylcholine Receptor M1 (CHRM1) (Homo sapiens, UniProt P11229); experiment: Calcium flux secondary messenger assay, agonist format; type: cell-based; details: read-out: EC50 (μM) Agonist/Opener
Sequence of Muscarinic acetylcholine Receptor M1 (CHRM1) (P11229 whole entry): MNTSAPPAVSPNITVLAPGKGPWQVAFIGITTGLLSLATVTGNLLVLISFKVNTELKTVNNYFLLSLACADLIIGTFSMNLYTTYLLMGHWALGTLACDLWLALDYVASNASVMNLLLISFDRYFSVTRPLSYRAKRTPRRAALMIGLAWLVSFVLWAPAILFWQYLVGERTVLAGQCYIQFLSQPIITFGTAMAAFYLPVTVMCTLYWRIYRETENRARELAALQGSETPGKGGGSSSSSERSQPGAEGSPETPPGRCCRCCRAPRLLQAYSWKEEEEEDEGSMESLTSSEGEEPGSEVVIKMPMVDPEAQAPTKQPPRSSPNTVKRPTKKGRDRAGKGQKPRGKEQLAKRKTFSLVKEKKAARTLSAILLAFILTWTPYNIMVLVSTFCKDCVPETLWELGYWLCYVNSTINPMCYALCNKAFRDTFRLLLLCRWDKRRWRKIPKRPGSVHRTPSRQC

[14] = molecular target: Muscarinic acetylcholine Receptor M2 (CHRM2) (Homo sapiens, UniProt P08172); experiment: cAMP secondary messenger assay, agonist format; type: cell-based; details: read-out: EC50 (μM) Agonist/Opener
[15] = molecular target: Muscarinic acetylcholine Receptor M3 (CHRM3) (Homo sapiens, UniProt P20309); experiment: Calcium flux secondary messenger assay, agonist format; type: cell-based; details: read-out: EC50 (μM) Agonist/Opener
Sequence of Muscarinic acetylcholine Receptor M3 (CHRM3) (P20309 whole entry): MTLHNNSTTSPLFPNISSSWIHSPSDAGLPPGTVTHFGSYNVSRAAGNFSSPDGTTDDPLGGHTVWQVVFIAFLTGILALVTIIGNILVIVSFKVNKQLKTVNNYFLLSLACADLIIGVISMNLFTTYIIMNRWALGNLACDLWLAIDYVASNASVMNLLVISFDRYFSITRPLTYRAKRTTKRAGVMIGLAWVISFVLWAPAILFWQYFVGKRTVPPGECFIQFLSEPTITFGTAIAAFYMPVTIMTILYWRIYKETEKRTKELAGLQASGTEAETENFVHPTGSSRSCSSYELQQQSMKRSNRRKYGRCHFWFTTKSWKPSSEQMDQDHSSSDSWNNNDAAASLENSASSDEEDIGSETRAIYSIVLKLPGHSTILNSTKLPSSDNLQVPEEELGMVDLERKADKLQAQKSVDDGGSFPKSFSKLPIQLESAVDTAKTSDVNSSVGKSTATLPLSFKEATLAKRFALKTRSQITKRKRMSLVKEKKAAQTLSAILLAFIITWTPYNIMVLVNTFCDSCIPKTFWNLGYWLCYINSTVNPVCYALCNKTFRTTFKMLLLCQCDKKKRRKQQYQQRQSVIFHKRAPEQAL

[16] = molecular target: T8, Cannabinoid Receptor 1 (CNR1) (Homo sapiens, UniProt P21554); experiment: cAMP secondary messenger assay, agonist format; type: cell-based; details: read-out: EC50 (μM) Agonist/Opener
T8 sequence (P21554 whole entry): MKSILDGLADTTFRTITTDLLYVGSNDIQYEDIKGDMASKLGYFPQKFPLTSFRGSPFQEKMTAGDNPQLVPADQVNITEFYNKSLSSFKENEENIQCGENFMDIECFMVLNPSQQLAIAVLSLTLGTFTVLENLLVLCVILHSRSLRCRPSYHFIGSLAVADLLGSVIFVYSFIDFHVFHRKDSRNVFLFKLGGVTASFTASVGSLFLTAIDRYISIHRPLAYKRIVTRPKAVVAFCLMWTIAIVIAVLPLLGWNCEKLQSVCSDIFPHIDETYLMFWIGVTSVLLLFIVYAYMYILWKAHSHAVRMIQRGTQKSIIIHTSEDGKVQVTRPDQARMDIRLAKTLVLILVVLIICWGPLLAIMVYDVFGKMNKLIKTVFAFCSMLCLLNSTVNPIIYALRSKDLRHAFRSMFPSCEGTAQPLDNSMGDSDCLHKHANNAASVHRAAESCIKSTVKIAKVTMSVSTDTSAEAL

[17] = molecular target: T8, Cannabinoid Receptor 1 (CNR1); experiment: cAMP secondary messenger assay, antagonist format; type: cell-based; details: read-out: IC50 (μM) Antag./Blocker/Inhibitor
[18] = molecular target: Cannabinoid Receptor 2 (CNR2) (Homo sapiens, UniProt P34972); experiment: cAMP secondary messenger assay, antagonist format; type: cell-based; details: read-out: IC50 (μM) Antag./Blocker/Inhibitor
Sequence of Cannabinoid Receptor 2 (CNR2) (P34972 whole entry): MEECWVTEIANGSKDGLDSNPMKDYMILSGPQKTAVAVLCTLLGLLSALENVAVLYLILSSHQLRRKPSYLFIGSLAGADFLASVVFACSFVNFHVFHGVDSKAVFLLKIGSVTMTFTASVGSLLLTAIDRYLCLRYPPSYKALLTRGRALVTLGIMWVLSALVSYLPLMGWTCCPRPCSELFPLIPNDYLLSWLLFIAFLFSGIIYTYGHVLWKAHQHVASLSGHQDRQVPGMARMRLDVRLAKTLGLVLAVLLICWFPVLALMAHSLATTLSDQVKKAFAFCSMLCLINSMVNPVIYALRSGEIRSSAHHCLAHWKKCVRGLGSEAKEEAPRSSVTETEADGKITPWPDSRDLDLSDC

[19] = molecular target: Dopamine Receptor D1 (DRD1) (Homo sapiens, UniProt P21728); experiment: cAMP secondary messenger assay, antagonist format; type: cell-based; details: read-out: IC50 (μM) Antag./Blocker/Inhibitor
[20] = molecular target: Dopamine Receptor D2 (DRD2S) (Homo sapiens, UniProt P14416); experiment: cAMP secondary messenger assay, agonist format; type: cell-based; details: read-out: EC50 (μM) Agonist/Opener
Sequence of Dopamine Receptor D2 (DRD2S) (P14416 1-414 isoform P14416-2): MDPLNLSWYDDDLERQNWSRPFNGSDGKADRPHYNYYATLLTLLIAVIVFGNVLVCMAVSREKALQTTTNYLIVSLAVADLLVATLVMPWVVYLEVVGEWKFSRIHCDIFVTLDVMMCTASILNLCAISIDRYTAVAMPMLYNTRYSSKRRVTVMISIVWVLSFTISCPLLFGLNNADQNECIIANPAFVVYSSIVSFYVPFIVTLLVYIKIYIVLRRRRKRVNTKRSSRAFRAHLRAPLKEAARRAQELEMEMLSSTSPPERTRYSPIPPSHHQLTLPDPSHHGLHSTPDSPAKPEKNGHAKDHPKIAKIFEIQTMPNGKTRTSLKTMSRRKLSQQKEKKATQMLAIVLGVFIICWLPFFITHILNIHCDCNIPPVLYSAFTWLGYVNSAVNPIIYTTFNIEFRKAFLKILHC

[21] = molecular target: T9, Histamine Receptor H2 (HRH2) (Homo sapiens, UniProt P25021); experiment: cAMP secondary messenger assay, agonist format; type: cell-based; details: read-out: EC50 (μM) Agonist/Opener
T9 sequence (P25021 whole entry): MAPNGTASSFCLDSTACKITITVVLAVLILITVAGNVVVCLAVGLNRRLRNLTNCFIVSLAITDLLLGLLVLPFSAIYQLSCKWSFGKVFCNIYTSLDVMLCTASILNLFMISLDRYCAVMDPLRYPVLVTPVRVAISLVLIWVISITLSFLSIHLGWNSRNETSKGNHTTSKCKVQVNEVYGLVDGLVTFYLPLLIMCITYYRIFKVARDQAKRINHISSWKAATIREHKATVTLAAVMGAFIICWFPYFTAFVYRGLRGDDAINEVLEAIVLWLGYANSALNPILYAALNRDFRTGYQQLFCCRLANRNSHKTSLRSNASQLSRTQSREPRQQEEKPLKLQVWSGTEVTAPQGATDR

[22] = molecular target: T9, Histamine Receptor H2 (HRH2); experiment: cAMP secondary messenger assay, antagonist format; type: cell-based; details: read-out: IC50 (μM) Antag./Blocker/Inhibitor
[23] = molecular target: Opioid Receptor Mu (OPRM1) (Homo sapiens, UniProt P35372); experiment: cell-based; details: cAMP, agonist, read-out: EC50 (μM) Agonist/Opener
[24] = molecular target: Nicotinic acetylcholine Receptor α4 β2 (nAChR(a4/b2)) (Homo sapiens, UniProt P17787+P43681); experiment: Ion channel assay, blocker format; type: cell-based; details: read-out: IC50 (μM) Antag./Blocker/Inhibitor
[25] = molecular target: T10, N-methyl-D-aspartate (NMDA) Glutamate Receptor 1A/2B (NMDAR (1A/2B)) (Homo sapiens, UniProt Q05586+Q13224); experiment: Ion channel assay, opener format; type: cell-based; details: read-out: EC50 (μM) Agonist/Opener
T10 sequence (Q13224 27-1484, other chains not shown): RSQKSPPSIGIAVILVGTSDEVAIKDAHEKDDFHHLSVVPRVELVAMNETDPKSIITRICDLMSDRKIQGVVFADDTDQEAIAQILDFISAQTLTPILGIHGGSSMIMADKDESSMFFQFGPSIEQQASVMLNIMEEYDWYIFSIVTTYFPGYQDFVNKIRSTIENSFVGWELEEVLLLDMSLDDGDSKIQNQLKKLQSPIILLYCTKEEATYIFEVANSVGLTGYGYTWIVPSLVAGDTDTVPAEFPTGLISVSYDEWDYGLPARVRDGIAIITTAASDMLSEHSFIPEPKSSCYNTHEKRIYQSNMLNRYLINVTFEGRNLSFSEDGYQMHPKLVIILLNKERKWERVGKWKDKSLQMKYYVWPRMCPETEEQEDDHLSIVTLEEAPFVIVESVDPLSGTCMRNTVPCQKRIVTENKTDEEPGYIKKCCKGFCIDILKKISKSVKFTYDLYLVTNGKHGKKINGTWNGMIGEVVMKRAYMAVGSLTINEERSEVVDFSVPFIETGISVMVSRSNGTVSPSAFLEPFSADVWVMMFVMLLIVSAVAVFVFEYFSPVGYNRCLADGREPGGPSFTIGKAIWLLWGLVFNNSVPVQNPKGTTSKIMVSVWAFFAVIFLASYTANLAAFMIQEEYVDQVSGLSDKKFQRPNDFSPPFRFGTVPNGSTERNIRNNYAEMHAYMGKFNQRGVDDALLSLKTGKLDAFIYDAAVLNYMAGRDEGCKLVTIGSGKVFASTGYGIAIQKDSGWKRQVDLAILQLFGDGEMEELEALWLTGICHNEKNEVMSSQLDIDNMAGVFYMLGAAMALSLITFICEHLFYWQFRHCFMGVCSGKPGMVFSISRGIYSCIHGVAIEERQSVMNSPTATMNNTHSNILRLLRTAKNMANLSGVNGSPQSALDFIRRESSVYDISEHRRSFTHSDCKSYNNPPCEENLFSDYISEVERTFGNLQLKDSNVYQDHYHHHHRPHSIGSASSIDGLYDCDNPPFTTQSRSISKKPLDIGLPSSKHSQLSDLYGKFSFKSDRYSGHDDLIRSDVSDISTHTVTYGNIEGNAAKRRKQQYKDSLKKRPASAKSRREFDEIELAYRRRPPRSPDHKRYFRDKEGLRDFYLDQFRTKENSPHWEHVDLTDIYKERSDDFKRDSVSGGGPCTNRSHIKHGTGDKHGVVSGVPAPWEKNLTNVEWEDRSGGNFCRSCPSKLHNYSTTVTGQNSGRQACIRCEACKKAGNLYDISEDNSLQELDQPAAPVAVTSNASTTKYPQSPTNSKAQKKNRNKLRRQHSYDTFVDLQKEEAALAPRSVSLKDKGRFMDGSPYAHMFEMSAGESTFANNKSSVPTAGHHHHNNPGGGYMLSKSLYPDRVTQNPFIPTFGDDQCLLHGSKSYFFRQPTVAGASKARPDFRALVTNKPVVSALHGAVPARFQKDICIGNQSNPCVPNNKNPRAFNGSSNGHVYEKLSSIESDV

[26] = molecular target: T10, N-methyl-D-aspartate (NMDA) Glutamate Receptor 1A/2B (NMDAR (1A/2B)); experiment: Ion channel assay, blocker format; type: cell-based; details: read-out: IC50 (μM) Antag./Blocker/Inhibitor
[27] = molecular target: T11, Vascular endothelial growth factor receptor 2 (KDR tyrosine kinase) (VEGFR2) (Homo sapiens, UniProt P35968); experiment: biochemical; details: Binding, inhibitor, read-out: IC50 (μM) Antag./Blocker/Inhibitor
T11 construct: T7 phage fusion (most assays) or DNA tag for qPCR (the remaining kinases); made in house; host or cells: E. coli (BL21-derived, T7 phage display) or HEK-293

[28] = molecular target: NAV1.5 (tetrodotoxin-resistant voltage-gated sodium channel) (Homo sapiens, UniProt Q14524); experiment: cell-based
dopamine transporter = dopamine transporter (Homo sapiens, UniProt Q01959); experiment: Monoamine transporter uptake assay (Neurotransmitter Transporter Uptake Assay Kit), blocker format

`CN(C)CCc1ccn2ccccc12` [28-12 oxalate, 2-(indolizin-1-yl)-N, N-dimethylethan-1-amine oxalate] gave an IC50 (AChE) of over 30 µM, an IC50 (COX1) of 5.13 µM and an IC50 [1] of over 30 µM. The IC50 [2] was 1.08 µM, the EC50 [3] was over 30 µM and the EC50 [4] was over 30 µM. For the same compound, the EC50 [5] was over 30 µM, the EC50 [6] was over 30 µM and the EC50 [7] was over 30 µM. It also gave an EC50 [8] of over 30 µM, an EC50 [9] of over 30 µM and an IC50 [10] of over 30 µM. It also gave an EC50 [11] of over 30 µM, an IC50 [12] of over 30 µM and an EC50 [13] of over 30 µM. It also gave an EC50 [14] of over 30 µM, an EC50 [15] of over 30 µM and an EC50 [16] of over 30 µM. For the same compound, the IC50 [17] was over 30 µM, the IC50 [18] was over 30 µM and the IC50 [19] was over 30 µM. It also gave an EC50 [20] of over 30 µM, an EC50 [21] of over 30 µM and an IC50 [22] of over 30 µM. It also gave an EC50 [23] of over 30 µM, an IC50 [24] of over 30 µM and an EC50 [25] of over 30 µM. It also gave an IC50 [26] of over 30 µM, an IC50 [27] of over 30 µM and an IC50 [28] of over 30 µM. For the same compound, the IC50 (dopamine transporter) was over 30 µM.

— US20250042900A1 (priority 2022, published 2025)
